According to PubChem BioAssay (NCI):
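Interpolation was linear, between the two tested concentrations surrounding the appropriate level; five concentrations were tested over 48 hours in 96-well plates. At the TGI there is no net growth.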

Columns and labels:
Experiment in all cases: NCI anticancer screen, dose series, 48 h
[1] = test system: KM12 colon
[2] = test system: HCT-116 colon
[3] = test system: SK-OV-3 ovarian
[4] = test system: A549 NSCLC
[5] = test system: HOP-62 NSCLC
[6] = test system: SK-MEL-2 melanoma
[7] = test system: XF 498 CNS
[8] = test system: SNB-19 CNS
[9] = test system: SK-MEL-5 melanoma
[10] = test system: OVCAR-4 ovarian
[11] = test system: CCRF-CEM leukemia
[12] = test system: SK-MEL-28 melanoma
[13] = test system: HOP-92 NSCLC
[14] = test system: NCI-H23 lung
[15] = test system: MOLT-4 leukemia
[16] = test system: HCT-15 colon
[17] = test system: M14 melanoma
[18] = test system: RPMI-8226 leukemia
[19] = test system: DLD-1 colon
[20] = test system: OVCAR-8 ovarian
[21] = test system: SN12C renal
[22] = test system: HT29 colon
[23] = test system: UACC-62 melanoma
[24] = test system: KM20L2 colon
[25] = test system: UO-31 renal
[26] = test system: LXFL 529 NSCLC
[27] = test system: HL-60(TB) leukemia
[28] = test system: SF-539 CNS
[29] = test system: DMS 273 small cell lung
[30] = test system: HCC-2998 colon
[31] = test system: NCI-H460 lung
[32] = test system: UACC-257 melanoma
[33] = test system: TK-10 renal
[34] = test system: NCI-H226 lung
[35] = test system: LOX IMVI melanoma
[36] = test system: K-562 leukemia
[37] = test system: SNB-78 CNS
[38] = test system: SF-268 CNS
[39] = test system: M19-MEL melanoma
[40] = test system: 786-0 renal
[41] = test system: RXF-631 renal
[42] = test system: MALME-3M melanoma
[43] = test system: SW-620 colon
[44] = test system: SF-295 CNS
[45] = test system: HOP-18 NSCLC
[46] = test system: OVCAR-3 ovarian
[47] = test system: DMS 114 small cell lung
[48] = test system: COLO 205 colon
[49] = test system: U251 CNS
[50] = test system: ACHN renal
[51] = test system: A498 renal
[52] = test system: NCI-H522 lung
[53] = test system: EKVX NSCLC
[54] = test system: IGROV1 ovarian
[55] = test system: OVCAR-5 ovarian
[56] = test system: SNB-75 CNS
[57] = test system: RXF 393 renal
[58] = test system: CAKI-1 renal
[59] = test system: SR leukemia

For `N#C/C(=C\c1ccc(C(O)P(=O)(O)O)cc1)C(N)=O` (configuration not stated), the TGI [1] was > 100 µM, the TGI [2] was > 100 µM and the TGI [3] was > 100 µM. For the same molecule, the TGI [4] was > 100 µM, the TGI [5] was > 100 µM and the TGI [6] was > 100 µM. The TGI [7] was > 100 µM, the TGI [8] was > 100 µM and the TGI [9] was > 100 µM. The TGI [10] was > 100 µM, the TGI [11] was > 100 µM and the TGI [12] was > 100 µM. The TGI [13] was > 100 µM, the TGI [14] was > 100 µM and the TGI [15] was > 100 µM. The TGI [16] was > 100 µM, the TGI [17] was > 100 µM and the TGI [18] was > 100 µM. For the same molecule, the TGI [19] was > 100 µM, the TGI [20] was > 100 µM and the TGI [21] was > 100 µM. The TGI [22] was > 100 µM, the TGI [23] was > 100 µM and the TGI [24] was > 100 µM. For the same molecule, the TGI [25] was > 100 µM, the TGI [26] was > 100 µM and the TGI [27] was > 100 µM. For the same molecule, the TGI [28] was > 100 µM, the TGI [29] was > 100 µM and the TGI [30] was > 100 µM. The TGI [31] was > 100 µM, the TGI [32] was > 100 µM and the TGI [33] was > 100 µM. The TGI [34] was > 100 µM, the TGI [35] was > 100 µM and the TGI [36] was > 100 µM. For the same molecule, the TGI [37] was > 100 µM, the TGI [38] was > 100 µM and the TGI [39] was > 100 µM. The TGI [40] was > 100 µM, the TGI [41] was > 100 µM and the TGI [42] was > 100 µM. The TGI [43] was > 100 µM, the TGI [44] was > 100 µM and the TGI [45] was > 100 µM. For the same molecule, the TGI [46] was > 100 µM, the TGI [47] was > 100 µM and the TGI [48] was > 100 µM. For the same molecule, the TGI [49] was > 100 µM, the TGI [50] was > 100 µM and the TGI [51] was > 100 µM. For the same molecule, the TGI [52] was > 100 µM, the TGI [53] was > 100 µM and the TGI [54] was > 100 µM.

`CCN(CC)CCCC(C)NC(=O)c1ccc2c(c1)C(=O)c1ccccc1C2=O` (configuration not stated) was tested, and the TGI [55] was 34.2 µM, the TGI [56] was > 86.9 µM and the TGI [1] was 35.7 µM. The TGI [2] was 51.7 µM, the TGI [3] was > 93.6 µM and the TGI [4] was 57.4 µM. The TGI [5] was 69.9 µM, the TGI [6] was 38.9 µM and the TGI [7] was 21.3 µM. For the same molecule, the TGI [8] was 55.3 µM, the TGI [9] was 28.4 µM and the TGI [10] was 30.4 µM. The TGI [11] was 61.2 µM, the TGI [12] was 29.8 µM and the TGI [13] was 63.7 µM. It also gave a TGI [14] of 24.2 µM, a TGI [15] of 52.8 µM and a TGI [16] of 40 µM. It also gave a TGI [57] of 42.8 µM, a TGI [17] of 33.3 µM and a TGI [18] of 52.4 µM. It also gave a TGI [19] of 45.4 µM, a TGI [20] of 66 µM and a TGI [21] of 37.6 µM. It also gave a TGI [58] of 79.3 µM, a TGI [22] of 53 µM and a TGI [23] of 39.3 µM. It also gave a TGI [24] of 51.9 µM, a TGI [25] of 69 µM and a TGI [26] of 66.9 µM. For the same molecule, the TGI [27] was 34.2 µM, the TGI [28] was 36 µM and the TGI [29] was 46.2 µM. For the same molecule, the TGI [30] was 33.5 µM, the TGI [31] was 39.8 µM and the TGI [32] was 26.1 µM. It also gave a TGI [59] of 78.1 µM, a TGI [33] of 66.5 µM and a TGI [34] of 49 µM. For the same molecule, the TGI [35] was 39.6 µM, the TGI [36] was 48.4 µM and the TGI [37] was 47.4 µM. The TGI [38] was 80.4 µM, the TGI [39] was 32 µM and the TGI [40] was 39.5 µM. The TGI [41] was 65.5 µM, the TGI [42] was 27.6 µM and the TGI [43] was 43.1 µM. For the same molecule, the TGI [44] was 45.8 µM, the TGI [45] was > 100 µM and the TGI [46] was 32.2 µM. The TGI [47] was 20 µM, the TGI [48] was 23.3 µM and the TGI [49] was 50.4 µM. The TGI [50] was 38.2 µM, the TGI [51] was 42.3 µM and the TGI [52] was 37.4 µM. It also gave a TGI [53] of 55.8 µM and a TGI [54] of 55.3 µM.

`Cn1cnc([N+](=O)[O-])c1Sc1nnnn1-c1ccccc1` showed a TGI [55] of 31.7 µM, a TGI [56] of 31 µM and a TGI [1] of 35.2 µM. For the same molecule, the TGI [2] was 23.4 µM, the TGI [3] was > 100 µM and the TGI [4] was 62.9 µM. The TGI [5] was > 100 µM, the TGI [6] was 29.5 µM and the TGI [7] was 24.6 µM. For the same molecule, the TGI [8] was > 100 µM, the TGI [9] was 29.9 µM and the TGI [10] was 22.2 µM. The TGI [11] was 7.12 µM, the TGI [12] was 28.6 µM and the TGI [13] was 13 µM. The TGI [14] was 34.7 µM, the TGI [15] was 6.22 µM and the TGI [17] was 23.7 µM. It also gave a TGI [18] of 52.6 µM, a TGI [19] of 22.1 µM and a TGI [20] of 27.9 µM. The TGI [21] was 29.7 µM, the TGI [58] was 30.1 µM and the TGI [22] was 31.9 µM. The TGI [23] was 27.4 µM, the TGI [25] was 27.9 µM and the TGI [26] was 15.4 µM. It also gave a TGI [28] of 24.9 µM, a TGI [29] of 29 µM and a TGI [30] of 32.5 µM. It also gave a TGI [31] of 33.5 µM, a TGI [32] of 27.6 µM and a TGI [33] of 32.4 µM. It also gave a TGI [34] of 36.3 µM, a TGI [35] of 19.1 µM and a TGI [36] of 19.9 µM. The TGI [37] was 34.2 µM, the TGI [38] was 39.4 µM and the TGI [39] was 24.4 µM. For the same molecule, the TGI [40] was 30.5 µM, the TGI [41] was 30.6 µM and the TGI [42] was 21.3 µM. For the same molecule, the TGI [43] was 20.2 µM, the TGI [44] was 39.7 µM and the TGI [45] was 8.26 µM. For the same molecule, the TGI [46] was 26.6 µM, the TGI [47] was 33 µM and the TGI [48] was 20.7 µM. It also gave a TGI [49] of 26 µM, a TGI [50] of 27 µM and a TGI [51] of 38.9 µM. It also gave a TGI [52] of 7.35 µM, a TGI [53] of 29.6 µM and a TGI [54] of 33.7 µM.
